The text below walks through data of ChEMBL document CHEMBL4342507, “Targeting YAP Degradation by a Novel 1,2,4-Oxadiazole Derivative via Restoration of the Function of the Hippo Pathway” (ACS Med Chem Lett, 2020).

pIC50: −log10 of the molar value. Calls of active or inactive are those of the source. No cut-off for these calls is given here.

Series [1] has as its system MDA-MB-231. Kind of series: Cytotoxicity against human MDA-MB-231 cells ectopically overexpressed with wild type FLAG-tagged YAP assessed as reduction in cell viability at 0.2 to 1.2 uM measured after 72 hrs by MTT assay. It is filed as functional, cell-based.
The nature of series [2]: Acute toxicity in athymic Nude-Foxn1nu BALB/c mouse xenografted with human MDA-MB-231 cells assessed as effect on serum total cholesterol level level at 200 mg/kg, po administered once daily via gavage for 14 days. Type of series: organism-based. Particulars: in vivo, 336 h. Background: Xenograft models place foreign cells or tissue in a host animal.
Series [3] deals with MDA-MB-231. Kind of series: Downregulation of TAZ protein expression in human MDA-MB-231 cells at 0.25 to 1.5 uM measured after 24 to 48 hrs by immunoblotting analysis. Type of series: functional, cell-based. A general note: Immunoblotting shows a protein as a band on a membrane.
Series [4] concerns the target Serine/threonine-protein kinase 3/4 (Homo sapiens) (UniProt Q13043+Q13188). Kind of series: Activation of MST1/2 in human SUM159 cells assessed as effect on phosphorylation at T183/T180 residues at 0.25 to 1.5 uM measured after 12 hrs by Western blot analysis. Type of series: cell-based.
The target of series [5] is T1, Serine/threonine-protein kinase LATS1 (Homo sapiens) (UniProt O95835).
T1 sequence (whole entry): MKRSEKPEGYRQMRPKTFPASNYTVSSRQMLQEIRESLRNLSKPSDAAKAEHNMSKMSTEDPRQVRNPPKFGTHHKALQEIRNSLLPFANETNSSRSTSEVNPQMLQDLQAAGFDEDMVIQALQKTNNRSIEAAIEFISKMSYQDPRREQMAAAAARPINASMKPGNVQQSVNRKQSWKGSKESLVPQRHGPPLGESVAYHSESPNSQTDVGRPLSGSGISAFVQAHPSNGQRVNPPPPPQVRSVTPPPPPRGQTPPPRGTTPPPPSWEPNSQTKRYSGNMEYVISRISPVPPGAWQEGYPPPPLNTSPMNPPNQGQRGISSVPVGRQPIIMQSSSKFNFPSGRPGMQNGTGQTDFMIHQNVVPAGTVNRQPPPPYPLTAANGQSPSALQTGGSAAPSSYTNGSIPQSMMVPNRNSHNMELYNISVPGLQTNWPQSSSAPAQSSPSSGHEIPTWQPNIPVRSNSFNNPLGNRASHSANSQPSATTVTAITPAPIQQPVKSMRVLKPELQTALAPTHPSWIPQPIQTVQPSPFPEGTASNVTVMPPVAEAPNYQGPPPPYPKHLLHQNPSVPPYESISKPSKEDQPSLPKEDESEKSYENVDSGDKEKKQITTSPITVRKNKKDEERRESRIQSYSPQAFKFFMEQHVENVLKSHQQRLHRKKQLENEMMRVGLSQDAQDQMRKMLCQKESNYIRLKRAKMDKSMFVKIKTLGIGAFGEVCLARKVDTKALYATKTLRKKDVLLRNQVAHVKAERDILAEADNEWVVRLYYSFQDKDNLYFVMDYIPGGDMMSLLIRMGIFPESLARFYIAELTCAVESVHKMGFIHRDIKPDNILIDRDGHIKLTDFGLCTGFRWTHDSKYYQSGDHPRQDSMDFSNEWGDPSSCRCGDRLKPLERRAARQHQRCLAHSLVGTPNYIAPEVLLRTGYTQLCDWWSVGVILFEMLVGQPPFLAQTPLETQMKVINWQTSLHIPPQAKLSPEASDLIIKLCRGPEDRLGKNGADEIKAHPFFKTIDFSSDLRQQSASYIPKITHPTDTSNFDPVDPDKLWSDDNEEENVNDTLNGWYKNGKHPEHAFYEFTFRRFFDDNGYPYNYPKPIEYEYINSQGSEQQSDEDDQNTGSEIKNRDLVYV
Description: Activation of LATS1 in human SUM159 cells assessed as increase in phosphorylation at Ser909 residue measured after 12 hrs by Western blot analysis. It is filed as cell-based.

Series [6] has as its system MDA-MB-231. Kind of series: Effect on MST2 expression in human MDA-MB-231 cells at 0.25 to 1.5 uM measured after 24 hrs by Western blot analysis. Type of series: functional, cell-based.
Series [7] can be described thus: Acute toxicity in athymic Nude-Foxn1nu BALB/c mouse xenografted with human MDA-MB-231 cells assessed as effect on blood urea nitrogen level at 200 mg/kg, po administered once daily via gavage for 14 days. Type of series: organism-based. Particulars: in vivo, 336 h.
Series [8] concerns MDA-MB-231. Description: Effect on MOB expression in human MDA-MB-231 cells at 0.25 to 1.5 uM measured after 24 hrs by Western blot analysis. It is filed as functional, cell-based.
The target in series [9] is Hepatocyte growth factor receptor (Homo sapiens) (UniProt P08581). Kind of series: Induction of c-MET degradation in human MDA-MB-231 cells assessed as suppression of c-MET expression at 0.1 to 0.8 uM by Western blot analysis. It is filed as cell-based.
In series [10] the target is T1, Serine/threonine-protein kinase LATS1 (Homo sapiens). Description: Activation of LATS1 in human SUM159 cells assessed as induction of YAP degradation by measuring suppression of YAP protein expression at 0.25 to 1.5 uM measured after 12 to 24 hrs by immunoblotting analysis. Type of series: cell-based.
For series [11] the target is unchanged. Kind of series: Activation of LATS1 in human MDA-MB-231 cells assessed as induction of YAP degradation by measuring suppression of YAP protein expression at 0.25 to 1.5 uM measured after 12 to 24 hrs by immunoblotting analysis. Type of series: cell-based.
Series [12] concerns SUM-159-PT. Kind of series: Downregulation of TAZ protein expression in human SUM159 cells at 0.25 to 1.5 uM measured after 12 to 24 hrs by immunoblotting analysis. It is filed as functional, cell-based.
The target in series [13] is T1, Serine/threonine-protein kinase LATS1 (Homo sapiens). Kind of series: Activation of LATS1 in human SUM159 cells assessed as increase in YAP phosphorylation at Ser397 at 0.25 to 1.5 uM measured after 24 to 48 hrs by immunoblotting analysis. Type of series: cell-based.
In series [14] the test system is MDA-MB-231. Kind of series: Effect on MST1 expression in human MDA-MB-231 cells at 0.25 to 1.5 uM measured after 24 hrs by Western blot analysis. Type of series: functional, cell-based.
Series [15] relates to MDA-MB-231. Kind of series: Activation of MOB in human MDA-MB-231 cells assessed as phosphorylation at Thr35 residue at 0.25 to 1.25 uM measured after 24 hrs by Western blot analysis. Type of series: cell-based.
Series [16] concerns SUM-159-PT. Kind of series: Effect on MST1 expression in human SUM159 cells at 0.25 to 1.5 uM measured after 12 hrs by Western blot analysis. It is filed as functional, cell-based.
The target of series [17] is T1, Serine/threonine-protein kinase LATS1 (Homo sapiens). Description: Activation of LATS1 in human PC9 cells assessed as increase in YAP phosphorylation at Ser397 at 0.25 to 1.5 uM measured after 12 to 24 hrs by immunoblotting analysis. It is filed as cell-based.
The test system of another series is MCF7. Description: Cytotoxicity against human MCF7 cells assessed as reduction in cell viability measured after 72 hrs by MTT assay. It is filed as functional, cell-based. Particulars: MCF7, 72 h. On the technique in general: Formazan colour is commonly taken as a measure of viable cells.
The target in series [18] is T1, Serine/threonine-protein kinase LATS1 (Homo sapiens). Kind of series: Activation of LATS1 in human PC3 cells assessed as induction of YAP degradation by measuring suppression of YAP protein expression at 0.25 to 1.5 uM measured after 12 to 24 hrs by immunoblotting analysis. Type of series: cell-based.
For a further series, the system named is Mus musculus. Kind of series: Downregulation of YAP protein expression in tumor of athymic Nude-Foxn1nu BALB/c mouse xenografted with human MDA-MB-231 cells at 200 mg/kg, po administered once daily via gavage for 40 days by immunoblotting analysis. Type of series: functional, organism-based.
The target in series [19] is T1, Serine/threonine-protein kinase LATS1 (Homo sapiens). Description: Activation of LATS1 in human PC3 cells assessed as increase in YAP phosphorylation at Ser397 at 0.25 to 1.5 uM measured after 12 to 24 hrs by immunoblotting analysis. It is filed as cell-based.

Hepatocyte growth factor receptor (Homo sapiens), sequence (P08581 whole entry): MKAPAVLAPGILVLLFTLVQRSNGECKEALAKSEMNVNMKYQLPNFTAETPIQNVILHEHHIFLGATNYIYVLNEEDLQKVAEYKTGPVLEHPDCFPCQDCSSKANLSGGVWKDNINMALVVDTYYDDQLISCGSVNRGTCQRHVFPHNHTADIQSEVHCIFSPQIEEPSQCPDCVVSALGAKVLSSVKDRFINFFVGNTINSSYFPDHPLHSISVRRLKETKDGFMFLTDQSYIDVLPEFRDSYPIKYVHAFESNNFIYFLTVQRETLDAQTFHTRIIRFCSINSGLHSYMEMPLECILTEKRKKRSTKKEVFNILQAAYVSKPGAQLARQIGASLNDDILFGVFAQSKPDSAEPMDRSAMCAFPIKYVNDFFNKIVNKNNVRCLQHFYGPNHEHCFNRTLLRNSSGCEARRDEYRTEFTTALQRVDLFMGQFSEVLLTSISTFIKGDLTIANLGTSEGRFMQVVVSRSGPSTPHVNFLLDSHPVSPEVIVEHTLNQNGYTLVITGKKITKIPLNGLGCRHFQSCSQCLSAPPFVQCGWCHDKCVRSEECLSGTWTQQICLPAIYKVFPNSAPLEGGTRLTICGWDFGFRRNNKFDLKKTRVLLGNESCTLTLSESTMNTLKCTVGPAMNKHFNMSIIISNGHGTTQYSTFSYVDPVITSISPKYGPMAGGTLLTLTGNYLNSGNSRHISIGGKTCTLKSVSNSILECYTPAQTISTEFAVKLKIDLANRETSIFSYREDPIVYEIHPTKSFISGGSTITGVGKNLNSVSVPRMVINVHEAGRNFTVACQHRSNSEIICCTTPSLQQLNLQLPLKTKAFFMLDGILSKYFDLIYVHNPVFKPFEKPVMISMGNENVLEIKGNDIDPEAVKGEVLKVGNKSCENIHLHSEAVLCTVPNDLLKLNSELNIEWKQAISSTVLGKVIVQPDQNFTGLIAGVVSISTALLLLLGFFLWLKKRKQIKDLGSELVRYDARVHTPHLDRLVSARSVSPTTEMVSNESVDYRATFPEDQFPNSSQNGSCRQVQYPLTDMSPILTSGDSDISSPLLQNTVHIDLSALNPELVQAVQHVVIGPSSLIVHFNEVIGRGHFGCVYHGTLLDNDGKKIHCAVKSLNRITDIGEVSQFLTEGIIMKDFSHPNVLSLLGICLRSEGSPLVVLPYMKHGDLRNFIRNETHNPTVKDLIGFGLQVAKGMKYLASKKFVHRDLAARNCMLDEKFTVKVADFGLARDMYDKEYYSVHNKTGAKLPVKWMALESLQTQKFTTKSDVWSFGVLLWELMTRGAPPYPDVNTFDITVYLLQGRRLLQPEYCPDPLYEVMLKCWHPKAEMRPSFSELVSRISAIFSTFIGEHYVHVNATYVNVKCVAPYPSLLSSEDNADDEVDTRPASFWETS
Serine/threonine-protein kinase 3/4 (Homo sapiens), sequence (Q13043 whole entry, looked up): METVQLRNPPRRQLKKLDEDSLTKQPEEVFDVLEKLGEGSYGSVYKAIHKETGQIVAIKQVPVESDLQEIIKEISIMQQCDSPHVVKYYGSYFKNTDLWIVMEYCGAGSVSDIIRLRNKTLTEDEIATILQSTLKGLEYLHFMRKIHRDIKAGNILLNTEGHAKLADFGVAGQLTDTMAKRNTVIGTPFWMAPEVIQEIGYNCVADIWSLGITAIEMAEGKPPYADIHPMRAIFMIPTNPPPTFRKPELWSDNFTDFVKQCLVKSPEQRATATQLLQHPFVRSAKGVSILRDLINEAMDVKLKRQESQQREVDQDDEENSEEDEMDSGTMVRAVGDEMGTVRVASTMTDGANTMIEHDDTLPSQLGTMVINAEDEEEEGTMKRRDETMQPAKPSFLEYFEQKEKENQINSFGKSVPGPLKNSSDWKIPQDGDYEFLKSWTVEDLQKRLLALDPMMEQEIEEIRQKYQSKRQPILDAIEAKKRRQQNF
Serine/threonine-protein kinase 3/4 (Homo sapiens), sequence (Q13188 whole entry, looked up): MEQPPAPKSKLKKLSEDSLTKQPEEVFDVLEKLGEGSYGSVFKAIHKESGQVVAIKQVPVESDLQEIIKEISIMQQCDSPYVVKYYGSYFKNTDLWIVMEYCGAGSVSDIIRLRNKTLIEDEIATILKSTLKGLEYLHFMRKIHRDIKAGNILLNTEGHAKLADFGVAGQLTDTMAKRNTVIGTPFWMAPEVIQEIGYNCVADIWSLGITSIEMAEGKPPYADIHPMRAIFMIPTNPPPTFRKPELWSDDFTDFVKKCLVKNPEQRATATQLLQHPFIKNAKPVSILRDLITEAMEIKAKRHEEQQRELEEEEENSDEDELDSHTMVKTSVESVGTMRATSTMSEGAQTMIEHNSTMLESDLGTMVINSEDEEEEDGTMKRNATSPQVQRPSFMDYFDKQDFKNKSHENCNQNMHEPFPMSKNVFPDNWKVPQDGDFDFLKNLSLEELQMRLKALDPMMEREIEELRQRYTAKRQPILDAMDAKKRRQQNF

Regarding `CC(=O)Nc1ccc(NC(=O)Nc2cccc(-c3nc(-c4ccc(NC(=O)c5cccnc5)cc4Cl)no3)c2)cc1C(F)(F)F`, the outcome (in the series on MDA-MB-231 [1]; in series [4]; with MDA-MB-231 [6]; in the series on MDA-MB-231 [8]; in series [9]; in series [13]) was inactive. Also, the outcome in the series with MDA-MB-231 [14] and in the series on SUM-159-PT [16] was inactive. The Activity entry in series [2] was “Non-Toxic”; in series [5] it was “Dose-dependent effect”; in series [7], “Non-Toxic”. In addition, the inhibition entry in the series on MDA-MB-231 [3], with SUM-159-PT [12] and in the series with Mus musculus was “Active” in each case. The result (in [10]; in [11]; in the series on MDA-MB-231 [15]; in [17]; in series [18]; in [19]) was Active. The pIC50 in the series on MCF7 was less than 5.92.

As a reminder, the pIC50 is the negative decadic logarithm of the IC50, by convention in mol/L.
